Among the data in article PMC12682947, “Identification of New KCNT1‐Epilepsy Drugs by In Silico, Cell, and Drosophila Modeling” (Annals of Neurology, 2025) are inhibition and IC50 values, retold here.

Counter-ions that a name gives are not always drawn.

The target of this assay is T1, WT and mutant human KCNT1 channels (Homo sapiens, UniProt Q5JUK3).
T1 sequence (Q5JUK3 1-1230): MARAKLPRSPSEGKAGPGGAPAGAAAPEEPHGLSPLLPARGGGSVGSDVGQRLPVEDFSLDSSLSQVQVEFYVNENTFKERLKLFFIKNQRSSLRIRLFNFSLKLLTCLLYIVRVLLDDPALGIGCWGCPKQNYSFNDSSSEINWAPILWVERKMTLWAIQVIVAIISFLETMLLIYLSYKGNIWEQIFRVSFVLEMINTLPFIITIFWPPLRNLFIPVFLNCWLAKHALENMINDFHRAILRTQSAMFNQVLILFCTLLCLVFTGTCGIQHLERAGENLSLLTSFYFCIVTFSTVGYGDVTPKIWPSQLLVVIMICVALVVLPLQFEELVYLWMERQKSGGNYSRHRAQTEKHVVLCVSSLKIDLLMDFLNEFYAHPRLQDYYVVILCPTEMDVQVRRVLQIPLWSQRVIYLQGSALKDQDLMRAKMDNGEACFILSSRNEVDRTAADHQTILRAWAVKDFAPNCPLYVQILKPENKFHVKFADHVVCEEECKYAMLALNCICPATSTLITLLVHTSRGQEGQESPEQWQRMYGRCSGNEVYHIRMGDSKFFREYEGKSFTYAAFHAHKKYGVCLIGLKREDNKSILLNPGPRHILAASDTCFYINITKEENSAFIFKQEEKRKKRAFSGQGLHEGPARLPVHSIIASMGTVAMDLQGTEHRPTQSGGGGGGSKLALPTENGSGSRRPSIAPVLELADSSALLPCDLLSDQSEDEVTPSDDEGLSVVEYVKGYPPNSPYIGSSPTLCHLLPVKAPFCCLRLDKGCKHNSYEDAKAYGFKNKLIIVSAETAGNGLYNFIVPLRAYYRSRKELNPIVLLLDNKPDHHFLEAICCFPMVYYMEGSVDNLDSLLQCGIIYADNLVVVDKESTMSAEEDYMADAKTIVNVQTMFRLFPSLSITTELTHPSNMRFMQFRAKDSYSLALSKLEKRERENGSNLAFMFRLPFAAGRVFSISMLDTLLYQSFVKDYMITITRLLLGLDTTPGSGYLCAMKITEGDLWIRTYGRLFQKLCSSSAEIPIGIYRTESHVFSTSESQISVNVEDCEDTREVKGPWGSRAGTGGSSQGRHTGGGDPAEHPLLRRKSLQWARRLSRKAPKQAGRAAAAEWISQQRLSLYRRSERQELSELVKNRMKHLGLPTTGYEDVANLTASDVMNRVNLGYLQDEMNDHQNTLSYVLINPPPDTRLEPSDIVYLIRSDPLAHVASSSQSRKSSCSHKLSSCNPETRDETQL
The assay can be described thus: Inside-out patch clamp, statements pooled over WT and mutant channels. To be noted: inside-out patches; for inhibition at 0.25 µM: 250 nM. In kind it is cell-based. How it is done: The CHO cells were cultured in Dulbecco's modified Eagle's Medium (ThermoFisher, UK) supplemented with 10% (v/v) fetal bovine serum, 50 U/ml penicillin and 0.05 mg/ml streptomycin, and incubated at 37°C in 5% CO2 atmosphere. For whole cell recording of WT/Y796H KCNT1, CHO cells were transiently co‐transfected with concatemeric WT/Y796H and EYFP, as described previously.[29] For electrophysiological experiments, cells were plated onto borosilicate glass cover slips and used 2 to 4 days later. Human embryonic kidney 293T cells (HEK293T) were cultured in the same manner, but with medium supplemented with 2 mM L‐glutamine, and 1% (v/v) nonessential amino acids. For excised inside‐out recording of homomeric WT or mutant YFP‐tagged KCNT1, HEK293T cells plated on glass cover slips were transfected using Attractene Transfection Reagent (Qiagen, Germany) according to the manufacturer's instructions and used 2 to 3 days later.
Inside‐out patch clamp recordings were made at room temperature (23°C) from transiently transfected HEK293T cells, as described previously.[11] The pipette solution contained, in mM, 140 NaCl, 4 KCl, 2 CaCl2, 2 MgCl2, and 10 HEPES adjusted to pH 7.4 with NaOH. After achieving the inside‐out configuration, the intracellular face of the membrane was constantly perfused with a solution containing, in mM, 35 NaCl, 110 KCl, 0.2 EGTA, and 10 HEPES adjusted to pH 7.3 with KOH. Drug stock solutions of 5 to 20 mM in DMSO were first diluted in ethanol (1:10) and then in electrophysiological solution. KCNT1 currents were recorded using 2 voltage protocols, depending on the number of active channels in the patch before drug application. Macroscopic currents (number of active channels > 15) were recorded in response to 100 ms voltage ramps between −120 and 120 mV applied every 2 seconds from a holding potential of −78 mV. The average current amplitudes between 0 and 40 mV were used for the analyses and constructing the concentration‐response curves. With a lower number of active channels in the patch (3–15), current traces were recorded in response to 15‐second voltage steps to −20, 0, and 20 mV from a holding potential of −78 mV. Currents recorded at each voltage and each drug concentration were averaged over the duration of the trace and normalized to the average amplitudes of the corresponding current traces in drug‐free solution. The normalized data for all 3 voltage steps were then averaged for each drug concentration and used to build the concentration‐response curves (see Supplementary Fig S3). To determine the IC50, data were fitted with the Hill equation, as described previously.[11] Single channel data were analyzed using Ana software developed by Dr Michael Pusch (Istituto di Biofisica, Genova, Italy; http://users.ge.ibf.cnr.it/pusch/programs-mik.htm). […]
(In general: The patch-clamp technique gives a direct electrical read-out from membranes.)

As to `O=C(OCCN1CCN(c2cccc(C(F)(F)F)c2)CC1)c1ccccc1Nc1ccnc2cc(C(F)(F)F)ccc12` [antrafenine], the inhibition (in general, the change of the read-out against control, counted positive when it falls) at 0.25 µM lay in the range of 80 to 90%. Also, the inhibition at 0.3 µM (300 nM, read-out: inhibition of single KCNT1 channels) was around 90%. Also, the IC50 (commonly the concentration that gives 50% inhibition) (read-out: direct IC50 on single KCNT1 channels) is around 10 nM.

`Cc1c(O)cccc1C(=O)N[C@@H](CSc1ccccc1)[C@H](O)CN1C[C@H]2CCCC[C@H]2C[C@H]1C(=O)NC(C)(C)C` [nelfinavir mesylate] returned an inhibition at 0.25 µM of 80 to 90%.
